Consider 1 molecule from patent US5691338A, “1,2-dithiole-3 thiones for the treatment of reverse transcriptase-dependent viral infections” (priority 1995, dated 1997).

Structures are written as SMILES. Entries after “also recorded” stand apart in the source; their conditions may differ. Where two headings read alike, the source gives them in different places.

The subject of one data set is HIV-1 (HTLVIIIB). As to the kind of experiment: microbe, parasite or virus in culture. The conditions noted are these: for synergy in inhibiting HIV-1 replication: p24 release / IFA, H9 cells, high viral inhibition. The procedure:
The effects for test compounds were assessed by means of both IFA and p24 release. In general, the following protocol was followed: H9 cells were infected with HIV-1 at 1000 50% infective doses of viruses/10^6 cells. Virus was allowed to adsorb for 1 h, after which unadsorbed virus was removed by centrifugation. The cells were resuspended and washed twice with PBS (without Ca^+2 or Mg^+2 salts) and centrifuged to collect the cell pellet (150×g×10 min). Cells were suspended in fresh medium and added at a final cell density of 500,000 cells/ml in a 96-well plate with media containing 0.1% DMSO and various concentrations of test compounds. The cells were re-fed freshly prepared media containing 0.1% DMSO±test compounds on day four (for preinduction experiments, cells were exposed to inducers on days -2, 0, and +4 days relative to infection). After seven days, cells were examined for cytoxicity by trypan blue exclusion, the degree of infection with HIV-1 by IFA, and the supernatants were assayed for p24 levels according to the manufacturer's directions. The IFA procedure can be summarized as follows: The cells were washed twice in PBS and were placed in 5 mm 12-well slides. After allowing the slides to dry and fixing the cells with acetone for 5 min, 10 μl of HIV-1 positive serum in 40 μl PBS was added to each well and allowed to incubate at 37° C. for 30 min. After incubation, the slides were washed twice with PBS and incubated at 37° C. for 30 min with 2.5 μl goat anti-human IgG-fluorescein isothiocyanate conjugate in 50 μl PBS containing 0.01% Evans Blue per well. The slides were then washed twice with PBS, dried, and mounted with 50% glycerol in PBS, and scored for the percentage of fluorescent cells by fluorescent microscopy.
Statistical significance for GSH and QR levels were established by the unpaired t test using the INSTAT statistics program (Graphpad, San Diego, Calif.). The Ki of oltipraz was determined by performing Segal transformations (26) of Dixon plots. […] Calculations were performed on spreadsheets using Lotus 1-2-3 software (Cambridge, Mass.).

For data set [1] the following is noted: cited from earlier work.
In another data set the test system is H9 cells. As to the kind of experiment: Cytotoxicity in H9 cells by trypan blue exclusion. The conditions noted are these: concentrations up to 120 μM, H9 cells. In kind it is cell-based, human.
For data set [2], the system named is glutathione S-transferases. The conditions noted are these: Schistosoma mansoni; cited from earlier work.
The subject of data set [3] is HTLV-I reverse transcriptase. Particulars: MT-2 (HTLV-I-infected) cells, FIG. 7.
Protocol: MT-2 is a lymphocytic cell-line that is transformed by, and is antigen positive for HTLV-I. HTLV-I can be detected in supernatants of MT-2 cultures by monitoring reverse transcriptase activity. Using the MT-2 system compounds that are inhibitors of HTLV-I reverse transciptase can be identified. MT-2 cells are washed and incubated in triplicate with various concentrations of the test compounds, positive drug controls, negative drug controls or media alone. A cell-line that is negative for HTLV-I, such as H9, is used as a negative reverse transcriptase control. After 72 hours of incubation, culture supernatants are harvested and tested for reverse transcriptase activity as described (25). Inhibition of reverse transcriptase activity is calculated by comparing the radioactive counts in the experimental compounds to the MT-2 non-drug controls. ED50's can be calculated for each compound.
In data set [4] the target is T1, HIV-1 reverse transcriptase (RT) (Human immunodeficiency virus type 1 group M subtype B, UniProt P04585).
T1 construct: Recombinant HIV-1 reverse transcriptase (RT) was obtained from Worthington (Freehold, N.J.); purchased Worthington (Freehold, N.J.)
As to the kind of experiment: Inhibition of recombinant HIV-1 reverse transcriptase (TTP incorporation). The class given is biochemical. The conditions noted are these: for Ki: Segal transformation of Dixon plots. The procedure:
(§1) Reverse transcriptase assays were performed as described by Flexner, et al. (25) using recombinant HIV-1 RT as the source of enzyme. Dilutions and assay were carried out in 96-well "half-area" plates. The enzyme with various concentrations of test compounds were dissolved in DPBS containing 1% w/v BSA and diluted in 50 μl volumes; 10 μl aliquots in triplicate were transferred to another plate for the enzyme assay. The reactions were initiated by the addition of 25 μl/well of buffer containing 50 mM Tris.cndot.Cl (pH 8.0), 75 mM KCl, 1 mM dithiothreitol, 2 mM MgCl2, 5 μg/ml poly(A), 2.5 μg/ml oligo (dT), 10 μCi/ml ^32 p TTP with or without unlabeled TTP. […] TTP incorporation was measured by spotting 20 μl of the reaction cocktail onto DE81 paper, washing the paper with 4×5 min washes of 300 mM NaCl and 30 mM sodium citrate (pH 7.0), drying the paper, and counting the paper by liquid scintillation counting. The assays performed with oltipraz and 1,2-dithiole-3-thione contained 0.29% final concentration DMSO. This concentration of DMSO had no effect on RT activity.

In data set [5] the target is T1, HIV-1 reverse transcriptase (RT). As to the kind of experiment: Time-dependent (irreversible) inhibition of HIV-1 reverse transcriptase after preincubation. The class given is biochemical. The procedure:
FIG. 6. […] RT was preincubated for the times indicated with oltipraz dissolved in DPBS containing 1 mg/ml bovine serum albumin, 0.13% DMSO, and either 4 μM TTP or 5 μg/ml poly(A):2.5 μg/ml oligo(dT). After incubation, 10 μl aliquots in triplicate were added to 25 μl of a reaction cocktail containing 4 μM TTP, 5 μg/ml poly(A), and 2.5 μg/ml oligo(dT) and assayed for TTP incorporation into DNA over 30 min. as described by Flexner, et al. (25). The insets are Kitz-Wilson transformations (41).
as §1, with “DMSO.” for “DMSO. This concentration of DMSO had no effect on RT activity.”

[6] abbreviates: Dixon plots, listed as oltipraz.

For `Cc1c(-c2cnccn2)ssc1=S` [compound 11, 4-methyl-5-(2-pyrazinyl)-1,2-dithiole-3-thione], the IC50 with HIV-1 (HTLVIIIB) (Human immunodeficiency virus 1, H9, read-out: IC50 as determined by p24 antigen release assays) was 14.8 ± 3.1 µM; in the data set on HIV-1 (HTLVIIIB) (Human immunodeficiency virus 1, H9, read-out: median dose (p24 release)), 19.4 µM. The “synergy in inhibiting HIV-1 replication” value in the data set on HIV-1 (HTLVIIIB) (listed as Oltipraz) is “highly synergistic with azidothymidine (AZT)”; with HIV-1 (HTLVIIIB) (listed as oltipraz), “acts synergistically with AZT”. Also, the “tolerability at anti-HIV-1 doses” value in data set [1] (in vivo) is recorded as “well tolerated”. Besides, in data set [1] (single or split doses of 20-35 mg/kg, treatment of schistosomiasis), the “tolerability of high doses” value is given as “can be tolerated”. Further, the cytotoxicity result in the data set on H9 cells is given as “non-cytotoxic”. The “inhibition of glutathione S-transferases” value in data set [2] is “irreversibly inhibits”. In addition, in data set [3], the “effect on levels of RT activity in media” value is reported as “dose-dependent effect”. Besides, in data set [4] (setting [6]), the “type of inhibition with respect to TTP” value is given as “non-competitive inhibitor”. The “type of inhibition with respect to poly(A):oligo(dT)” value in data set [4] (setting [6]) was “mixed inhibitor”. Also, the Ki in data set [4] (N=2 experiments, read-out: Ki with respect to TTP) was found to be 183 ± 50 µM; in data set [4] (N=3 experiments, read-out: Ki with respect to poly(A):oligo(dT)), 189 ± 29 µM; in data set [5] (preincubation with TTP, experiment of FIG. 6, Kitz-Wilson) it was 15.6 µM; in data set [5] (preincubation, N=5 independent experiments), 25.9 ± 3.4 µM. The “synergy as inhibitors of reverse transcriptase” value in data set [4] (moderate to high levels of inhibition) was “synergistically with AZT 5'-triphosphate”. In data set [4] (poly(A):oligo(dT) and TTP as substrates), the “inhibition of recombinant HIV-1 reverse transcriptase” value is “inhibitor”. The “irreversible inhibition of reverse transcriptase” value in data set [5] (kinetic behaviour) was “behaves kinetically as an irreversible inhibitor of RT”. Besides, the “RT inactivation in the presence of poly(A):oligo(dT)” value in data set [5] (preincubation with poly(A):oligo(dT), FIG. 6 lower, listed as oltipraz) is reported as “indistinguishable from rates of RT inactivation in its absence; also recorded: inconsistent with irreversible inhibition”. Besides, the kinact in data set [5] (preincubation, N=5 independent experiments, read-out: k3 (limiting rate of inactivation) (converted)) is 1.44e-05 s⁻¹; in data set [5] (read-out: k3 (limiting rate of inactivation), preincubation with TTP, experiment of FIG. 6, Kitz-Wilson), 2.33e-05 s⁻¹.
